The text below walks through data of patent publication US5350748A, “3-thio or amino substituted-benzo[b]thiophene-2-carboxamides and 3-oxygen, thio, or amino substituted-benzofuran-2-carboxamides as inhibitors of cell adhesion” (Warner-Lambert Company, priority 1993, dated 1994).

Assay [1] relates to HIV-1 activation in OM-10.1 cells. The conditions noted are these: poster NCDDG/AIDS, San Diego, 1991; some 48 compounds evaluated; cited from earlier work.
Assay [2] has the same test system. Kind of assay: Inhibition of activation of latent HIV-1 in chronically infected OM-10.1 cells. The conditions noted are these: Human immunodeficiency virus 1. Type of assay: cell-based. The text has this: The cellular pathways involved in mediating the activating signal from the plasma membrane to the integrated virus, resulting in HIV-1 expression, are much less clear. Recently, the development of a reliable and simple system for evaluating compounds that could prevent activation of latent HIV was reported at the National […] (NCDDG)/AIDS by P. Feorino, S. T. Butera, T. M. Folks, and R. F. Schinazi, San Diego, Calif., Nov. 3-7, 1991. The assay system employed the OM-10.1 cell line, a unique chronically-infected promyelocytic clone which remains CD4+ until HIV-1 activation with tumor necrosis factor-α. The expression of CD4+ on the cell surface and the activity of reverse transcriptase are used as markers for quantitating viral expression. Alternatively, other HIV markers, such as protease activity, which are known to those of skill in the art can be used. OM-10.1 cells remain CD4^+ until viral activation and respond to tumor necrosis factor induction, and therefore, these cultures are used to conveniently and rapidly examine pharmacologics for an ability to prevent CD4^+ down modulation (decrease in expression of CD4^+ on the cell surface) and HIV-1 expression.
A variety of compounds known to have antiviral properties against either acutely or chronically infected cells were evaluated for their ability to inhibit HIV expression in these OM-10.1 cells. […]

In assay [3] the test system is human neutrophil adhesion to TNF-α-stimulated human umbilical vein endothelial cells (HUVEC). The assay is described as follows: Modified method: inhibition of human neutrophil adhesion to TNF-α-stimulated human umbilical vein endothelial cells (calcein-labeled neutrophils). Type of assay: cell-based. The conditions noted are these: footnote a, neutrophil label not given, IC50 by linear regression from 33.3, 10.0, 3.3 and 1.0 μM, read-out: Adhesion ECA, IC50. The protocol:
(§1) The 3-thiol, thioether, amino, alkylamino, or arylamino-benzo[b]thiophene-2-carboxamides and 3-alkoxy, aryloxy, thiol, thioether, amino, alkylamino, or arylamino-benzofuran-2-carboxamides have been shown in an in vitro assay to prevent the adhesion of neutrophils to human umbilical vein endothelial cells (HUVECS) stimulated with TNF-α. In this assay, HUVECS are stimulated with TNF-α for 4 hours, after which the cells are assayed for their ability to adhere to human neutrophils labeled with either ^51 Cr or calcein, a fluorescent dye. The details of this assay are described in the DETAILED DESCRIPTION.
(§2) Neutrophils were isolated from anticoagulant-treated venous blood obtained from healthy human volunteers according to the method of Ferrante and Thong [J. Immunol. Methods 24, 389-93 (1978)]. The cell preparations consisted of greater than 98% neutrophils.
Modified Method for Determining the Inhibition of Human Neutrophil Adhesion to TNF-α, IL-1α, and LPS Stimulated Human Umbilical Vein Endothelial Cells
The previous assay using ^51 Cr labeled human neutrophils has been modified. The neutrophils are now labeled with the fluorescent dye calcein. The current method allows for quantification of neutrophil adherence by fluorescence spectroscopy.
Second passage HUVEC (Clonetics Corporation, San Diego, Calif., CC-2617) were seeded into Coring (Corning glass works, Corning, N.Y.) 96-well cell culture plates at approximately 5×10^3 cells/well and grown to confluency in supplemented endothelial basal medium (EBM, MCDB-131, Clonetics, 10 ng/mL EGF, 1 μg/mL hydrocortisone, 0.4% bovine brain extract, 5% Fetal Bovine Serum). One day prior to running the assay, typically 3 days postseeding, the cultures were refed with 0.2 mL/well supplemented EBM (S-EBM).
Test compounds were prepared as 10 mL stock solutions at a concentration of 1.0 mM. The compounds were initially solubilized in 0.1 mL DMSO followed by the addition of 9.9 mL S-EBM. The drug preparations were then diluted in one step to a concentration of 66.6 μM or 200 μM. Solubilizations and dilutions were performed in polystyrene containers.
Recombinant human tumor necrosis factor-α (TNF, Genzyme, Boston, Mass., code TNF-H) was prepared at 400 U/mL in S-EBM. Stock TNF was prepared to 20,000 U/mL in Delbecco's phosphate-buffered saline (PBS, Gibco, Grand Island N.Y.) plus 0.1% BSA and stored at -70° C. HUVEC were washed one time with 0.2 mL warm unsupplemented EBM and then stimulated for 4hours at 37° C. with 200 U/mL TNF in the presence of 33.3 μM or 100 μM test compound. This was accomplished by adding 0.1 mL of 400 U/mL TNF and 0.1 mL 66.6 μM or 0.1 mL of 200 μM test compound. These additions were done slowly as to not disrupt the HUVEC monolayer. Each compound was tested in six wells. Unstimulated (vehicle control) and TNF-stimulated without test compound treatments were also run in each plate.
One hour prior to adding the neutrophils (isolated as previously described) to the HUVEC, neutrophils (5×10^6 /mL) were labeled for 30 minutes at 37° C. with 5 μM calcine-AM (Molecular Probes, Eugene, Oreg.) in Hanks' balanced salt solution plus 0.45% BSA. Stock calcein was prepared to 5mM in anhydrous DMSO and stored desiccated at -20° C. At the end of the incubation the cells were washed two times in cold HBSS and resuspended to a final concentration of 1×10^6 cells/mL in unsupplemented EBM.
At the end of the 4-hour stimulation and immediately prior to the addition of the neutrophils to the HUVEC monolayer, the plates were washed with 0.2 ml warm unsupplemented EBM to remove TNF and drug. Neutrophils (1×10^5 cells) were slowly added to each of the treated wells and incubated for 30 minutes at 37° C. At the end of the incubation the plates were washed two times with 0.2 mL warm unsupplemented EBM followed by a final addition of 0.1 mL for plate scanning.
The fluorescence was determined using a Millipore Cytofluor 2300 system (excitation=480, emission=530, sensitivity=4). […]

Assay [4] has the same test system. The assay is described as follows: Inhibition of human neutrophil adhesion to TNF-α-stimulated human umbilical vein endothelial cells (51Cr-labeled neutrophils). Type of assay: cell-based. The conditions noted are these: neutrophils labeled with Cr, read-out: Adhesion ECA, % inhibition. The protocol: as §1
Method for Determining the Inhibition of Human Neutrophil Adhesion to TNF-α, IL-1α, and LPS-Stimulated Human Umbilical Vein Endothelial Cells
as §2
Second passage human umbilical vein endothelial cells (HUVEC) (Clonetics, San Diego, Calif.) were seeded into Falcon 24-well cell culture plates (Becton Dickinson, Lincoln Park, N.J.) at approximately 2×10^4 cells per well. The cells were grown to confluent monolayers in endothelial basal medium (EBM, Clonetics) supplemented with 5% fetal calf serum (Hyclone Laboratories, Logan, Utah), 10 ng/mL EGF, 1 μg/mL hydrocortisone, 0.4% bovine brain extract (Clonetics) in 5% CO2 at 37° C.
Neutrophils (30×10^6) were labeled for 60 minutes at 37° C. with 100 μCi Na^51 CrO4 (ICN Biomedicals, Costa Mesa, Calif.) in 2.0 mL Ca^2+ - and Mg^2+ -free Hanks' balanced salt solution (HBSS, GIBCO Laboratories, Grand Island, N.Y.). […]
Stimulation of HUVEC with tumor necrosis factor-α (TNF-α) (Genzyme, Cambridge, Mass.), interleukin (IL-1α) (Genzyme) or E. coli 0111: B4 lipopolysaccharide (LPS) (Sigma) in the presence or absence of drug was initiated 4 hours prior to the addition of neutrophils. […] Lysates were collected and the radioactivity in each well was determined by gamma ray spectroscopy.

Turning to `Cc1cn([C@H]2C[C@H](F)[C@@H](CO)O2)c(=O)[nH]c1=O` [3'-fluoro-3'-deoxythymidine (FLT), 3'-fluoro-3'-deoxythymidine], in assay [1], the “inhibition of activation of HIV-1 in OM-10.1 cells” value (“inhibition … in OM-10.1 cells” below) is on record as “modest inhibitors of the activation of HIV-1”. As to `COc1ccc2sc(C(N)=O)c(SC(C)C)c2c1` [Example 1, 5-Methoxy-3-[(1-methylethyl)thio]benzo[b]thiophene-2-carboxamide], the results for the IC50 in assay [2] and in assay [3] were 0.4 µM and 11.7 µM, respectively. As to `CC(C)Sc1c(C(N)=O)sc2ccccc12` [Example 2, 3-[(1-Methylethyl)thio]benzo[b]thiophene-2-carboxamide], the inhibition at 100 µM in assay [4] was determined as 34%. Consider `COc1ccc2sc(C(N)=O)c(SC)c2c1` [Example 4, 5-Methoxy-3-(methylthio)benzo[b]thiophene-2-carboxamide], for which the inhibition at 100 µM in assay [4] was found to be 81%.

As for `COc1ccc2sc(C(N)=O)c(Sc3ccccc3)c2c1` [Example 5, 5-Methoxy-3-(phenylthio)benzo[b]thiophene-2-carboxamide], the inhibition at 100 µM in assay [4] was 48%. `CC(=O)N(O)CCCCCNC(=O)CCC(=O)N(O)CCCCCNC(=O)CCC(=O)N(O)CCCCCN` [desferrioxamine]: the “inhibition … in OM-10.1 cells” value in assay [1] was “modest inhibitors of the activation of HIV-1”. For “interferon Y: interferon Y, considered modest inhibitor of the activation of HIV-1 (probably interferon gamma)”, the “inhibition … in OM-10.1 cells” value in assay [1] is “modest inhibitors of the activation of HIV-1”.

What is called IC50 is the concentration at which inhibition is half-maximal. By inhibition is commonly meant the drop in the measured response relative to a control, in per cent.
